Assay [1] deals with Phosphatidylinositol 4-kinase alpha (Homo sapiens, UniProt P42356). The experiment in a line: Selectivity interaction (Adapta Assay) EUB0001632a PI4KA. The note with it: at 10 µM.
Assay [2] deals with Glycogen synthase kinase-3 alpha (Homo sapiens, UniProt P49840). The assay is described as follows: Selectivity interaction (KinomeScan (DiscoverX)) EUB0000695a GSK3A. The note with it: at 100 nM.
Assay [3] has as its target T1, cGMP-dependent protein kinase 2 (Homo sapiens) (UniProt Q13237).
T1 sequence (whole entry): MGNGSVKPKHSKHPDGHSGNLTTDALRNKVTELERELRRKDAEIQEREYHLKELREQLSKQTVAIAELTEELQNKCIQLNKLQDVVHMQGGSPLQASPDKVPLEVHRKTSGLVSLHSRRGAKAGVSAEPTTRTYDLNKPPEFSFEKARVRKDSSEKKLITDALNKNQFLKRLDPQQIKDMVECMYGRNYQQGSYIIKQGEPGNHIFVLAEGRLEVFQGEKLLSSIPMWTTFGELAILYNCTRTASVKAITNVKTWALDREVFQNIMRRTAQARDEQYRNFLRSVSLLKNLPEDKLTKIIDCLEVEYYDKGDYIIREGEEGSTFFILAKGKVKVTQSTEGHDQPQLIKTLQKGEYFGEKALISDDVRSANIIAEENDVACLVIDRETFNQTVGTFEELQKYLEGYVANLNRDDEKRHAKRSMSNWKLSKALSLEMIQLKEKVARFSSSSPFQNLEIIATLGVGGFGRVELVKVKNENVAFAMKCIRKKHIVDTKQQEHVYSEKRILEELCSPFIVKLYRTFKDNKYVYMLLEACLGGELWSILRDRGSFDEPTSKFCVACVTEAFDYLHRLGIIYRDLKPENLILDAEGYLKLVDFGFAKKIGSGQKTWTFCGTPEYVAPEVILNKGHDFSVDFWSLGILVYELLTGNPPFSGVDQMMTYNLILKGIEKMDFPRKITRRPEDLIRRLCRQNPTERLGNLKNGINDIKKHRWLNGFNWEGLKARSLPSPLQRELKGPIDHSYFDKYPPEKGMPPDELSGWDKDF
The experiment in a line: Selectivity interaction (KinomeScan (DiscoverX)) EUB0000666a PRKG2. Particulars: at 10 µM.

Assay [4] deals with T2, Serine/threonine-protein kinase TBK1 (Homo sapiens) (UniProt Q9UHD2).
T2 sequence (whole entry): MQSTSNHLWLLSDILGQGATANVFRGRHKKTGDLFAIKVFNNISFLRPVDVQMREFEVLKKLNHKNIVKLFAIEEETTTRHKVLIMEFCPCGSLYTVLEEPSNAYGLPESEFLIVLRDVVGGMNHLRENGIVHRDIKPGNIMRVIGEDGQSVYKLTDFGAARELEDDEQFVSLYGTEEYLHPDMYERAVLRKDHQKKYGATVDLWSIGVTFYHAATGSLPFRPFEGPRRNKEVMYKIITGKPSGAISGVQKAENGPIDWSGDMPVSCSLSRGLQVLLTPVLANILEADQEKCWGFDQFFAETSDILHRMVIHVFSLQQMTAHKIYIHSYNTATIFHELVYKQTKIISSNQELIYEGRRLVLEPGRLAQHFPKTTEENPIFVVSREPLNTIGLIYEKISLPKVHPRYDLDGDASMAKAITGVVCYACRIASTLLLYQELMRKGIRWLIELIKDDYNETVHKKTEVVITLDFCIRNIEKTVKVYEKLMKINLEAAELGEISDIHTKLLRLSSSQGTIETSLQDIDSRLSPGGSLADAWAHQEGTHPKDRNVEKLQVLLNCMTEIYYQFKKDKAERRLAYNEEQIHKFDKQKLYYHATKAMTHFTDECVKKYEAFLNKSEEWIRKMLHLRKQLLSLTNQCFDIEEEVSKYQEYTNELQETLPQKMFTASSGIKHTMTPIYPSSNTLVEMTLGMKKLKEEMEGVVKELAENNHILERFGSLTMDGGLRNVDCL
The assay is described as follows: Selectivity interaction (Kinase panel (Invitrogen)) EUB0000639a TBK1. Particulars: at 200 nM.

Assay [5] addresses T3, Serine/threonine-protein kinase 3 (Homo sapiens) (UniProt Q13188).
T3 sequence (whole entry): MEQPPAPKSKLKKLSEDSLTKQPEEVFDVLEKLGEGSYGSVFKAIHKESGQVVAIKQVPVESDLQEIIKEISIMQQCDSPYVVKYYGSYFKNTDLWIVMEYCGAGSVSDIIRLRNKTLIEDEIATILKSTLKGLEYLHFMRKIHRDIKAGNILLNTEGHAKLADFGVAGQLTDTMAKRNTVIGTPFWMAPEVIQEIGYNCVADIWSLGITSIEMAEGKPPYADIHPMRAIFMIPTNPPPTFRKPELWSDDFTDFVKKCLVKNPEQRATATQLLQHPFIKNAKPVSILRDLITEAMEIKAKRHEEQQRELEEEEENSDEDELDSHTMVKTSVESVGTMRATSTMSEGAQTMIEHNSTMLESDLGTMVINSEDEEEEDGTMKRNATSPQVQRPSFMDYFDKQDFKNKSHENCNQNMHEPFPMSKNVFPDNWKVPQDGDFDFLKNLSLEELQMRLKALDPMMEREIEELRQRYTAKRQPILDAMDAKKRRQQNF
The assay is described as follows: Selectivity interaction (ActivX KiNativ screen (kinase selectivity in THP-1 cell lysates)) EUB0000639a STK3. It is filed as subcellular. The note with it: lysate, at 0.04 µM.

Assay [6] concerns the target Transient receptor potential cation channel subfamily M member 6 (Homo sapiens) (UniProt Q9BX84). The assay is described as follows: Selectivity interaction (Ambit KINOMEscan and KiNATiv profiling in Jurkat cells) EUB0000090b TRPM6. It is filed as cell-based. Particulars: at 1 µM.
Assay [7] addresses Epidermal growth factor receptor (Homo sapiens, UniProt P00533).
The target of assay [8] is Casein kinase I isoform epsilon (Homo sapiens, UniProt P49674). The assay is described as follows: Selectivity interaction (KinomeScan (DiscoverX)) EUB0001049a CSNK1E. Particulars: at 1 µM.
Assay [9] addresses WD repeat-containing protein 48 (Homo sapiens) (UniProt Q8TAF3). The experiment in a line: Selectivity interaction (PWWP, WD40, and Tudor domain panel (DSLS measurements, literature)) EUB0000270b WDR48.
The target of assay [10] is T4, Aurora kinase A (Homo sapiens) (UniProt O14965).
T4 sequence (whole entry): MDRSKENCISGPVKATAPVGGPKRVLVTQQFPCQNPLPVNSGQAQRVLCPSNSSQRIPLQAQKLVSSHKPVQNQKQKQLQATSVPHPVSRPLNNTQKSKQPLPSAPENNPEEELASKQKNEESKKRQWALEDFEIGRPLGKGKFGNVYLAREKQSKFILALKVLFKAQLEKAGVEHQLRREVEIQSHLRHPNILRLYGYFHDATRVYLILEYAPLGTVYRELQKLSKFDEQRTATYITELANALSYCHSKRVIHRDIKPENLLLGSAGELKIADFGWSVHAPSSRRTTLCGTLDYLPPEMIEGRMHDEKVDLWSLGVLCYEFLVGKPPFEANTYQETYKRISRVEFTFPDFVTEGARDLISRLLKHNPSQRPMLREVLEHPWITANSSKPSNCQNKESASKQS
The experiment in a line: Selectivity interaction (Millipore kinase profiler) EUB0000124b STK6. The note with it: at 10 µM.

Molecules are shown by their SMILES.

Casein kinase I isoform epsilon, sequence (P49674 whole entry, looked up, the tested form may be a part, canonical isoform): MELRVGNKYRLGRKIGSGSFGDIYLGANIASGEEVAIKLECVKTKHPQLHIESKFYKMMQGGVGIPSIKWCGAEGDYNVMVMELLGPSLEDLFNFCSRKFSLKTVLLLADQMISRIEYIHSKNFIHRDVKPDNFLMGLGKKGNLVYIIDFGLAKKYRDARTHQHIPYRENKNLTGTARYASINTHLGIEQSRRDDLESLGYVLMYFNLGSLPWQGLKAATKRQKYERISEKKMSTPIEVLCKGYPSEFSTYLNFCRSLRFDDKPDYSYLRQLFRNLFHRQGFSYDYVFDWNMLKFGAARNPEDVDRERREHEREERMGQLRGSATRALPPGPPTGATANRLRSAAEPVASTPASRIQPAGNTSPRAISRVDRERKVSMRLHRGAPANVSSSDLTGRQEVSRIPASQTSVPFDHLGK
Glycogen synthase kinase-3 alpha, sequence (P49840 2-483 limits assumed): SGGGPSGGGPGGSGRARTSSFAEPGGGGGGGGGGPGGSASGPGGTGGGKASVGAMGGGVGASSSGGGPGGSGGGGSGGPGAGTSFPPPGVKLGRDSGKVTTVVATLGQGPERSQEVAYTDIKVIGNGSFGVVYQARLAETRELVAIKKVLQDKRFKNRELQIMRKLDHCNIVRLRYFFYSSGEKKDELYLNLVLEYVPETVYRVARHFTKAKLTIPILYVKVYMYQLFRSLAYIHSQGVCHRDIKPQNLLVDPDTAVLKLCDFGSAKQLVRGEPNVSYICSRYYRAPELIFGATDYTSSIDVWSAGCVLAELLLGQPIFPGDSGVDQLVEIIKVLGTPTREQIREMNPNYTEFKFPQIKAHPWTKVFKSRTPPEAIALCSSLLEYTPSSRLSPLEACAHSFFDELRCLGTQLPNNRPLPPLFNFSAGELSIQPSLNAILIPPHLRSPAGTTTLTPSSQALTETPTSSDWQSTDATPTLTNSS
Phosphatidylinositol 4-kinase alpha, sequence (P42356 whole entry, looked up): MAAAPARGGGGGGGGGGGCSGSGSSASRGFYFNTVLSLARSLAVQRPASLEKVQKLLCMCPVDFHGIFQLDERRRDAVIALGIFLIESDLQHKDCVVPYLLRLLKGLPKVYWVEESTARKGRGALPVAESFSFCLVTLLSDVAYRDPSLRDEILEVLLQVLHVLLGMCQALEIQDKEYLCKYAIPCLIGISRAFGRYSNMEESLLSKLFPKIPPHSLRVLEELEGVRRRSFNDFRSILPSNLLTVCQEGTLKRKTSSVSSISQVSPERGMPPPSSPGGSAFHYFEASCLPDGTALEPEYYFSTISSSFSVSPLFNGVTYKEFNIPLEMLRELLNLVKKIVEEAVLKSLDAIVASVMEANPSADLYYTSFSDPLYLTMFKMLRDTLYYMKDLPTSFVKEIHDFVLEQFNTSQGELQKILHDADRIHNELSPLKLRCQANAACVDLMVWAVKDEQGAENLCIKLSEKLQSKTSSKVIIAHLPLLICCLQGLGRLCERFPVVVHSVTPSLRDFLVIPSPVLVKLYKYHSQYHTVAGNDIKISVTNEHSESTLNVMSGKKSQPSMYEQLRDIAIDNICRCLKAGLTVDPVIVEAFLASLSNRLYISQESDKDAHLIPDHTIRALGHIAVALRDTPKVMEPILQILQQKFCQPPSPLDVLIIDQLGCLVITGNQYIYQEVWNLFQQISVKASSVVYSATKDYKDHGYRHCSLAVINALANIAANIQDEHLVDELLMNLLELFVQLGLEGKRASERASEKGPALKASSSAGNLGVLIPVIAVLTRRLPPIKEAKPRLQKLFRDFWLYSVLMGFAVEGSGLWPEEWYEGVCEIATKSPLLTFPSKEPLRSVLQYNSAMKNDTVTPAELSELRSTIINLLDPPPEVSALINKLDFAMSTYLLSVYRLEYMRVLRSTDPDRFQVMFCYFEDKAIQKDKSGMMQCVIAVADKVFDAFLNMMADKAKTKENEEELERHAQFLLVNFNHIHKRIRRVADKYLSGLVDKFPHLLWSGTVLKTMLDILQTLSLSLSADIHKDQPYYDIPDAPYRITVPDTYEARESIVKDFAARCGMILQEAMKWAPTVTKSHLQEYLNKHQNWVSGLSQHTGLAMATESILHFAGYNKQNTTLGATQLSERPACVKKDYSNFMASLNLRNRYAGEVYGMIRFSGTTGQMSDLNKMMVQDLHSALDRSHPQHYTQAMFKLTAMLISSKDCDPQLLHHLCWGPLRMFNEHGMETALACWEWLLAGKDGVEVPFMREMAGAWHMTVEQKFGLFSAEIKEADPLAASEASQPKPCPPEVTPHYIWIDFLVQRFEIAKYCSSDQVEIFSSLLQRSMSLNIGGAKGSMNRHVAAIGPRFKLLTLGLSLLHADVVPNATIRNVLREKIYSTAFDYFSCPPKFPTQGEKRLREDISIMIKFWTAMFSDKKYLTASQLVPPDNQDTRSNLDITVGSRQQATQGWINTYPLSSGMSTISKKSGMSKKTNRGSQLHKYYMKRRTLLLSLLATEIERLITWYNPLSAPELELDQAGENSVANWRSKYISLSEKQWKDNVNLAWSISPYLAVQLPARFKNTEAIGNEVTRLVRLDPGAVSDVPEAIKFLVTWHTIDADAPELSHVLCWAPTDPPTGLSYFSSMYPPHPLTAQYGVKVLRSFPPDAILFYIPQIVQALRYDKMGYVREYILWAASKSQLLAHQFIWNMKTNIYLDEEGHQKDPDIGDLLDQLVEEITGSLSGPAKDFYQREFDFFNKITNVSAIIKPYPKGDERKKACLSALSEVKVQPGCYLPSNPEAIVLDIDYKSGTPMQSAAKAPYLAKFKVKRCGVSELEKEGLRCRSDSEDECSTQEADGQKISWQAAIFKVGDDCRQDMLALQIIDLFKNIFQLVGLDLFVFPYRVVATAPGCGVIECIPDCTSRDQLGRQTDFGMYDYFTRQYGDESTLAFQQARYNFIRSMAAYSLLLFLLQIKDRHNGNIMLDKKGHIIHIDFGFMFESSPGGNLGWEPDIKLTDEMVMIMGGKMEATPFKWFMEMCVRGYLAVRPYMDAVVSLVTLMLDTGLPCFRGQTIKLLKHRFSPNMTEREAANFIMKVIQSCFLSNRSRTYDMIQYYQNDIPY
WD repeat-containing protein 48 (Homo sapiens), sequence (Q8TAF3 whole entry, the tested form may be a part): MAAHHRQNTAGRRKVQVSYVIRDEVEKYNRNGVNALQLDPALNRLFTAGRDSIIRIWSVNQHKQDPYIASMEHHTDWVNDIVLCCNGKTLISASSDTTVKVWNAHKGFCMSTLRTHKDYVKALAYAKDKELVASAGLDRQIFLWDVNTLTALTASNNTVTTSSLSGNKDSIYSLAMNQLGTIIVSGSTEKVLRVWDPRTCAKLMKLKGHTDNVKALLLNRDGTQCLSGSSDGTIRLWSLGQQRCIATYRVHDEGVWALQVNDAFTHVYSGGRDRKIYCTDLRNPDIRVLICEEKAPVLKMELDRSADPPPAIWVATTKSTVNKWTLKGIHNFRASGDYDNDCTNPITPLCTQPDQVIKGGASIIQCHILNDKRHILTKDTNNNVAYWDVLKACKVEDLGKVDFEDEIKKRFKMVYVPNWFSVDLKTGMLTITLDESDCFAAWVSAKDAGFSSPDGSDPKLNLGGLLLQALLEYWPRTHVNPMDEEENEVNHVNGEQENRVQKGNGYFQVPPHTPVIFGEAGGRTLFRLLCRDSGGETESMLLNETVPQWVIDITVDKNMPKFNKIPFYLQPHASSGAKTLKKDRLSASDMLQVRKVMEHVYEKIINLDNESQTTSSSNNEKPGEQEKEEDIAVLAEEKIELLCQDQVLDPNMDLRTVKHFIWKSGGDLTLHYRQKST
Epidermal growth factor receptor, sequence (P00533 whole entry, canonical isoform): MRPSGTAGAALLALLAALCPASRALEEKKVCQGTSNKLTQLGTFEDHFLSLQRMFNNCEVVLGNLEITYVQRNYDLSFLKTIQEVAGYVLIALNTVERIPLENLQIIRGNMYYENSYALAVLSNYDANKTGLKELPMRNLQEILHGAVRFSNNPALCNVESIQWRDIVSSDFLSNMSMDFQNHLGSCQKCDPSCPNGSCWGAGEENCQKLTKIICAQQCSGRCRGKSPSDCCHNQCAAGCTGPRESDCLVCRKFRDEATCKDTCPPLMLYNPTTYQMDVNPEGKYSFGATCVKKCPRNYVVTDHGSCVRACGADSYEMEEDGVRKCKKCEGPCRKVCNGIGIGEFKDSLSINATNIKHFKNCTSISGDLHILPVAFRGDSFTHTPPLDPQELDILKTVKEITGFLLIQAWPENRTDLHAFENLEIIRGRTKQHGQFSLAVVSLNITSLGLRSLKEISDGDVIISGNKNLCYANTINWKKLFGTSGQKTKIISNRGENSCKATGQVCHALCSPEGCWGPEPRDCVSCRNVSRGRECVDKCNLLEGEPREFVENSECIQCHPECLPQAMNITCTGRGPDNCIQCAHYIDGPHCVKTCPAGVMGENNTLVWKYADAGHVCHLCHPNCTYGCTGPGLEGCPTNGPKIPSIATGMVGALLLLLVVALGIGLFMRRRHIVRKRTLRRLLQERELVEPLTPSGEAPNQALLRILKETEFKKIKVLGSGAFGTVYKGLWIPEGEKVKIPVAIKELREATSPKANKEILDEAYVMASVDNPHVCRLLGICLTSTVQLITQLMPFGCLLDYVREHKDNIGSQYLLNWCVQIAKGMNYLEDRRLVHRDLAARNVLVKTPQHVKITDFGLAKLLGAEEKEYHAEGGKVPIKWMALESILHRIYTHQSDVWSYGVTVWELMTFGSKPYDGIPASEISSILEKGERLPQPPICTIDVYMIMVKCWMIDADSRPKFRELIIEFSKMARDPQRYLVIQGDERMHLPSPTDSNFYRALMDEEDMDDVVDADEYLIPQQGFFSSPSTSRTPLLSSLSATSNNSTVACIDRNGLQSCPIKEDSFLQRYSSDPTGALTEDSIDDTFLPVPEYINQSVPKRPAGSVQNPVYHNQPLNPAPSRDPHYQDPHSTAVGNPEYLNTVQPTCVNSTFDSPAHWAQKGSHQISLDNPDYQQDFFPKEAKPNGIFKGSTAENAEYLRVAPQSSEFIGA

On to `Cn1cc(-n2cnc3c(NCc4nc5cc(Cl)c(Cl)cc5[nH]4)nc(N4CCOCC4)nc32)cn1`, for which, in assay [1], the % of inhibition is -3.32%. `Cc1cc(F)c(C(=O)Nc2cccc(-c3nncn3C(C)C)n2)cc1-n1cnc(C2CC2)c1` registered a % of control in [2] of 80%. On to `O=C(NOC[C@H](O)CO)c1ccc(F)c(F)c1Nc1ccc(I)cc1F`, for which the % of control in [3] is 86%. With `CC[C@@H]1[C@H](F)C(=O)N[C@@H]1COc1nccc2cc(C(N)=O)c(OC)cc12` [ZIMLOVISERTIB], the % of inhibition in assay [4] is 7.67%; in [5], 2.2%.

`CN(C)C/C=C/C(=O)Nc1ccc(C(=O)N2CCCC(Nc3ncc(Cl)c(-c4c[nH]c5ccccc45)n3)C2)cc1` (stereo not given) returned a % of control in assay [6] of 88%. Turning to `CCc1cccc(CC)c1NC(=O)c1nn(C)c2c1CCc1cnc(Nc3ccc(C(=O)NC4CCN(C)CC4)cc3OC(F)(F)F)nc1-2`, in [7], the half-inhibitory concentration (IC50) is more than 10 µM. For `COc1cc(Nc2nc(C)cc(-c3cnn4nc(OC)ccc34)n2)cc(C(F)(F)F)c1`, the % of control in assay [8] turned out to be 80%. The compound `Cc1cc(CN)cc(C)c1-c1ncn(C)c1-c1cncn1C` returned a dTagg in [9] of 0.1 K.

Compound `CC(=O)Nc1cccc(-n2c(=O)n(C3CC3)c(=O)c3c(Nc4ccc(I)cc4F)n(C)c(=O)c(C)c32)c1` showed a % of control in [10] of 124%.

What is called IC50 is the concentration that inhibits the measured activity by half. Read a low IC50 as higher potency.

The values are drawn from ChEMBL document CHEMBL5465560, “Selectivity Literature for EUbOPEN Chemogenomic Library” (2024).
